Experimental findings from patent publication US20170334899A1, “AMINO-SUBSTITUTED ISOTHIAZOLES” (Bayer Pharma Aktiengesellschaft, priority 2014, published 2017) are described below.

pIC50: −log10 of the molar value. Bounds are passed on as bounds.

The target of the test is T1, human kinase Mps-1 (Homo sapiens, UniProt P33981).
T1 construct: N-terminally GST-tagged human full length recombinant Mps-1 kinase; GST (N); purchased Invitrogen, Karslruhe, Germany PV4071
T1 sequence (P33981 1-857): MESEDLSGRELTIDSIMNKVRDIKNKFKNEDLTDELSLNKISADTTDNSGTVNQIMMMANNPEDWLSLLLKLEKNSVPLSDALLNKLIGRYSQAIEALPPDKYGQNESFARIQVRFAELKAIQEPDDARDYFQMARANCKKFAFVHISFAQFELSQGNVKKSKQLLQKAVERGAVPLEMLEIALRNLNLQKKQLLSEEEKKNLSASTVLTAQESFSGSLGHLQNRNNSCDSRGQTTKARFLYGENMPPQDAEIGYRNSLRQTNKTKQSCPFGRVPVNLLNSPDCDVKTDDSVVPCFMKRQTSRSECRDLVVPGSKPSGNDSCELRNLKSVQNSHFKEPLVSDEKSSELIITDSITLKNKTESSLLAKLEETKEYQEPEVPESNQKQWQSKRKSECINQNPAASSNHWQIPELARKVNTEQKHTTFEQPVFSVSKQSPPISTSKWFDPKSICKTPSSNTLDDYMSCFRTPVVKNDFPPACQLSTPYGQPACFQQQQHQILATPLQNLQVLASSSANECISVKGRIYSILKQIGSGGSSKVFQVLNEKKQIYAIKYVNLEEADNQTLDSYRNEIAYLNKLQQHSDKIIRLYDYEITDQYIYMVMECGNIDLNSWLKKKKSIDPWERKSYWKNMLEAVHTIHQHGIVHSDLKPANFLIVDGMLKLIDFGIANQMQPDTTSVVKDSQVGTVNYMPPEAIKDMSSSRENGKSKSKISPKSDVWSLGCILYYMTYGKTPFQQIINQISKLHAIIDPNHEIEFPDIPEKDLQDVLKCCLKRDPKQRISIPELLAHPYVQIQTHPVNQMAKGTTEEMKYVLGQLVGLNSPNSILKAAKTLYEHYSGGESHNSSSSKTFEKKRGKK
Briefly: Mps-1 kinase assay (TR-FRET). It is filed as biochemical. Conditions: Mps-1 TR-FRET kinase assay; avg; read-out: Mps1 avg (IC50 [mol/l]). Put shortly:
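GST-tagged full-length recombinant human Mps-1 (~0.5 nM) pre-incubated 15 min with compound, then reacted 60 min at 22 °C with 10 μM ATP and 1 μM biotinylated peptide in Hepes pH 7.7 buffer. EDTA-stopped; TR-FRET (Eu anti-phospho-Ser/Thr to SA-XLent) 665/620 nm ratio normalised to no-inhibitor and no-enzyme controls.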
Background: Time-resolved FRET reads energy transfer from a long-lived donor to a nearby acceptor.

Turning to `Cc1nsc(Nc2cnc(C(F)(F)F)cn2)c1C(=O)Nc1ccc(OCC2CCN(CC(F)F)CC2)nc1` [Example 345, N-(6-{[1-(2,2-difluoroethyl)piperidin-4-yl]methoxy}pyridin-3-yl)-3-methyl-5-{[5-(trifluoromethyl)pyrazin-2-yl]amino}-1,2-thiazole-4-carboxamide], the pIC50 is less than 4.70.

Regarding `Cc1nsc(Nc2cnc(C(F)(F)F)cn2)c1C(=O)Nc1ccc(OCCCN(C)CCF)nc1` [Example 352, N-(6-{3-[(2-fluoroethyl)(methyl)amino]propoxy}pyridin-3-yl)-3-methyl-5-{[5-(trifluoromethyl)pyrazin-2-yl]amino}-1,2-thiazole-4-carboxamide], the pIC50 was less than 4.70.

`Cc1nsc(Nc2cnc(C(F)(F)F)cn2)c1C(=O)Nc1ccc(OCC2CCCN(CC(F)(F)F)C2)nc1` (centres unmarked) [Example 326, 3-methyl-N-(6-{[1-(2,2,2-trifluoroethyl)piperidin-3-yl]methoxy}pyridin-3-yl)-5-{[5-(trifluoromethyl)pyrazin-2-yl]amino}-1,2-thiazole-4-carboxamide]: the pIC50 was no more than 4.70.

On to `Cc1nsc(Nc2cnc(C(F)(F)F)cn2)c1C(=O)Nc1ccc(OCCCN(C)CC(F)(F)F)nc1` [Example 354, 3-methyl-N-(6-{3-[methyl(2,2,2-trifluoroethyl)amino]propoxy}pyridin-3-yl)-5-{[5-(trifluoromethyl)pyrazin-2-yl]amino}-1,2-thiazole-4-carboxamide], for which the pIC50 is no more than 4.70.

Consider `CCN1CC[C@@H](Oc2ccc(NC(=O)c3c(C)nsc3Nc3cnc(C(F)(F)F)cn3)cn2)[C@H](F)C1` [Example 369, N-(6-{[(3R,4R)-1-ethyl-3-fluoropiperidin-4-yl]oxy}pyridin-3-yl)-3-methyl-5-{[5-(trifluoromethyl)pyrazin-2-yl]amino}-1,2-thiazole-4-carboxamide], for which the pIC50 is less than 4.70.

Turning to `Cc1nsc(Nc2cnc(C(F)(F)F)cn2)c1C(=O)Nc1ccc(N2CCN(CC(F)F)CC2)cn1` [Example 372, N-{5-[4-(2,2-difluoroethyl)piperazin-1-yl]pyridin-2-yl}-3-methyl-5-{[5-(trifluoromethyl)pyrazin-2-yl]amino}-1,2-thiazole-4-carboxamide], the pIC50 was less than 4.70.

In the case of `Cc1nsc(Nc2cnc(C(F)(F)F)cn2)c1C(=O)Nc1ccc(F)c(OCC2CCCN(CC(F)(F)F)C2)c1` (centres unmarked) [Example 337, N-(4-fluoro-3-{[1-(2,2,2-trifluoroethyl)piperidin-3-yl]methoxy}phenyl)-3-methyl-5-{[5-(trifluoromethyl)pyrazin-2-yl]amino}-1,2-thiazole-4-carboxamide], the pIC50 is no more than 4.70.

With `Cc1nsc(Nc2cnc(C(F)(F)F)cn2)c1C(=O)Nc1ccc(N2CCN(CC(F)F)CC2)nc1` [Example 359, N-{6-[4-(2,2-difluoroethyl)piperazin-1-yl]pyridin-3-yl}-3-methyl-5-{[5-(trifluoromethyl)pyrazin-2-yl]amino}-1,2-thiazole-4-carboxamide], the pIC50 is less than 4.70.

`Cc1nsc(Nc2cnc(C(F)(F)F)cn2)c1C(=O)Nc1ccc(OCC2CCCN(CCF)C2)nc1` (centres unmarked) [Example 325, N-(6-{[1-(2-fluoroethyl)piperidin-3-yl]methoxy}pyridin-3-yl)-3-methyl-5-{[5-(trifluoromethyl)pyrazin-2-yl]amino}-1,2-thiazole-4-carboxamide]: the pIC50 was no more than 4.70.

For `Cc1nsc(Nc2cnc(C(F)(F)F)cn2)c1C(=O)Nc1ccc(OCC2CCN(CCF)CC2)nc1` [Example 344, N-(6-{[1-(2-fluoroethyl)piperidin-4-yl]methoxy}pyridin-3-yl)-3-methyl-5-{[5-(trifluoromethyl)pyrazin-2-yl]amino}-1,2-thiazole-4-carboxamide], the pIC50 was less than 4.70.

With `Cc1nsc(Nc2cnc(C(F)(F)F)cn2)c1C(=O)Nc1ccc(OCCCN(C)CCC(F)(F)F)nc1` [Example 355, 3-methyl-N-(6-{3-[methyl(3,3,3-trifluoropropyl)amino]propoxy}pyridin-3-yl)-5-{[5-(trifluoromethyl)pyrazin-2-yl]amino}-1,2-thiazole-4-carboxamide], the pIC50 is no more than 4.70.

Take `Cc1nsc(Nc2cnc(C(F)(F)F)cn2)c1C(=O)Nc1ccc(OCC2CCCN(CCC(F)(F)F)C2)nc1` (centres unmarked) [Example 328, 3-methyl-5-{[5-(trifluoromethyl)pyrazin-2-yl]amino}-N-(6-{[1-(3,3,3-trifluoropropyl)piperidin-3-yl]methoxy}pyridin-3-yl)-1,2-thiazole-4-carboxamide]: the pIC50 is no more than 4.70.

With `Cc1nsc(Nc2ccc(C#N)cn2)c1C(=O)Nc1ccc(OC2CCN(CC(F)(F)F)CC2)nc1` [Example 30, 5-[(5-Cyanopyridin-2-yl)amino]-3-methyl-N-(6-{[1-(2,2,2-trifluoroethyl)piperidin-4-yl]oxy}pyridin-3-yl)-1,2-thiazole-4-carboxamide], the pIC50 was no more than 4.70.

Turning to `Cc1nsc(Nc2cnc(C(F)(F)F)cn2)c1C(=O)Nc1ccc(OCC2CCN(CCC(F)(F)F)CC2)nc1` [Example 347, 3-methyl-5-{[5-(trifluoromethyl)pyrazin-2-yl]amino}-N-(6-{[1-(3,3,3-trifluoropropyl)piperidin-4-yl]methoxy}pyridin-3-yl)-1,2-thiazole-4-carboxamide], the pIC50 was less than 4.70.

In the case of `Cc1nsc(Nc2cnc(C(F)(F)F)cn2)c1C(=O)Nc1ccc(O[C@H]2CCN(CC(F)F)C2)nc1` [Example 382, N-(6-{[(3S)-1-(2,2-difluoroethyl)pyrrolidin-3-yl]oxy}pyridin-3-yl)-3-methyl-5-{[5-(trifluoromethyl)pyrazin-2-yl]amino}-1,2-thiazole-4-carboxamide], the pIC50 is less than 4.70.

As to `Cc1nsc(Nc2cnc(C(F)(F)F)cn2)c1C(=O)Nc1ccc(OC2CCCN(CC(F)F)C2)nc1` (centres unmarked) [Example 330, N-(6-{[1-(2,2-difluoroethyl)piperidin-3-yl]oxy}pyridin-3-yl)-3-methyl-5-{[5-(trifluoromethyl)pyrazin-2-yl]amino}-1,2-thiazole-4-carboxamide], the pIC50 is no more than 4.70.

As for `CCN1CC[C@H](Oc2ccc(NC(=O)c3c(C)nsc3Nc3cnc(C(F)(F)F)cn3)cn2)[C@@H](F)C1` [Example 365, N-(6-{[(3S,4S)-1-ethyl-3-fluoropiperidin-4-yl]oxy}pyridin-3-yl)-3-methyl-5-{[5-(trifluoromethyl)pyrazin-2-yl]amino}-1,2-thiazole-4-carboxamide], the pIC50 is less than 4.70.

Take `Cc1nsc(Nc2cnc(C(F)(F)F)cn2)c1C(=O)Nc1ccc(OCC2CCCN(CC(F)F)C2)nc1` (centres unmarked) [Example 327, N-(6-{[1-(2,2-difluoroethyl)piperidin-3-yl]methoxy}pyridin-3-yl)-3-methyl-5-{[5-(trifluoromethyl)pyrazin-2-yl]amino}-1,2-thiazole-4-carboxamide]: the pIC50 is no more than 4.70.

With `Cc1nsc(Nc2cnc(C(F)(F)F)cn2)c1C(=O)Nc1ccc(N2CCN(CC(F)(F)F)CC2)nc1` [Example 360, 3-methyl-N-{6-[4-(2,2,2-trifluoroethyl)piperazin-1-yl]pyridin-3-yl}-5-{[5-(trifluoromethyl)pyrazin-2-yl]amino}-1,2-thiazole-4-carboxamide], the pIC50 was less than 4.70.

For the compound `Cc1nsc(Nc2cnc(C(F)(F)F)cn2)c1C(=O)Nc1ccc(OCCN(C)CC(F)(F)F)nc1` [Example 350, 3-methyl-N-(6-{2-[methyl(2,2,2-trifluoroethyl)amino]ethoxy}pyridin-3-yl)-5-{[5-(trifluoromethyl)pyrazin-2-yl]amino}-1,2-thiazole-4-carboxamide], the pIC50 is no more than 4.70.

On to `Cc1nsc(Nc2cnc(C(F)(F)F)cn2)c1C(=O)Nc1ccc(CCC2CCN(CC(F)F)CC2)nc1` [Example 356, N-(6-{2-[1-(2,2-difluoroethyl)piperidin-4-yl]ethyl}pyridin-3-yl)-3-methyl-5-{[5-(trifluoromethyl)pyrazin-2-yl]amino}-1,2-thiazole-4-carboxamide], for which the pIC50 is less than 4.70.

As for `Cc1nsc(Nc2cnc(C(F)(F)F)cn2)c1C(=O)Nc1ccc(OC[C@@H]2CCCN(CC(F)(F)F)C2)nc1` [Example 376, 3-methyl-N-(6-{[(3R)-1-(2,2,2-trifluoroethyl)piperidin-3-yl]methoxy}pyridin-3-yl)-5-{[5-(trifluoromethyl)pyrazin-2-yl]amino}-1,2-thiazole-4-carboxamide], the pIC50 is less than 4.70.

Take `Cc1nsc(Nc2cnc(C(F)(F)F)cn2)c1C(=O)Nc1ccc(OCCN(C)CC(F)F)nc1` [Example 349, N-(6-{2-[(2,2-difluoroethyl)(methyl)amino]ethoxy}pyridin-3-yl)-3-methyl-5-{[5-(trifluoromethyl)pyrazin-2-yl]amino}-1,2-thiazole-4-carboxamide]: the pIC50 is no more than 4.70.
